Measurements from US11389456B2, “Compounds and methods for treating oxalate-related diseases” (OxaluRx, Inc., priority 2018, dated 2022).
≈ marks a conversion by molar mass, not a printed value.

Columns and labels:
[1] = molecular target: recombinant full-length human hydroxyacid oxidase 1 (HAO1), the equivalent of hGOX (Homo sapiens (Human), UniProt Q9UJM8); assay: In-vitro human glycolate oxidase (hGOX) assay (Amplex red/HRP fluorescence); type: biochemical
Method: Biological Activity Assay: In-Vitro Human Glycolate Oxidase (hGOX) Assay
The in-vitro glycolate oxidase assay was performed using recombinant full-length human hydroxyacid oxidase 1 (HAO1), the equivalent of hGOX. […] Purified HAO1 was dissolved in assay buffer consisting of 10 mM NaCl, 110 mM KCl, 2 mM MgCl2, 50 mM HEPES (pH 7.4) and 0.01% Triton™ X-100.

[2] = Solubility in phosphate buffered saline (PBS), pH 7.4; type: physicochemical; conditions: phosphate buffer (PBS), aqueous buffer, kinetic from dmso stock; phosphate buffered saline pH 7.4, 1% DMSO, 1 hour shaking at room temperature
Method: (§1) For testing compound solubility in phosphate buffered saline (PBS), compound stock solutions were prepared at 10 mM in 100% DMSO. For testing in aqueous solution, the phosphate buffer was replaced with deionized, distilled water. Eleven grams Na2HPO4 (FW: 141.96 g/mol) and 3.5 g NaH2PO4.2H2O (FW: 156.03 g/mol) was added to 1 L Milli-Q water and adjusted to a pH to 7.4 with phosphoric acid or sodium hydroxide. For incubation, media were preheated to 37° C. Eight μL aliquots of reference and test compound stock solutions (10 mM) were added into 792 μL of 100 mM phosphate buffer (pH 7.4). The final DMSO concentration was 1%. Sample tubes were shaken for 1 hour at 1000 rpm at room temperature.
(§2) The calibration curve was prepared with 300-μM spiking solution (SS) in MeOH:acetonitrile (4:1). Six μL of 10 mM compound was added in 194 μL MeOH/acetonitrile (4:1). Samples were centrifuged for 10 minutes at 12,000 rpm to precipitate undissolved particles. Supernatants were transferred to a new tube or plate and dilute 10-fold and 100-fold with 100 mM buffer. Samples were prepared for LC-MS/MS analysis by adding 5 μL each sample (undiluted, 10-fold diluted, and 100-fold diluted) and 5 μL of standard curve samples to 95 μL of acetonitrile (containing internal standard).

[3] = Solubility in aqueous solution (deionized, distilled water); type: physicochemical; conditions: kinetic from dmso stock, 1% DMSO, read-out: Aqueous Solubility H2O
Method: as §1, §2

[4] = Metabolic stability in human liver microsomal preparation; type: in vitro ADME; conditions: pH 7.4, human liver microsomes, NADPH, 37° C.; for half-life at 1 μM: 0-45 min, read-out: Metabolic Stability t1/2
Method: For evaluating the metabolic stability in human liver microsomal preparation, three buffers were prepared. Buffer A had 1.0 L of 0.1 M monobasic potassium phosphate buffer containing 1.0 mM EDTA. Buffer B had 1.0 L of 0.1 M dibasic potassium phosphate buffer containing 1.0 mM EDTA. Buffer C had 0.1 M potassium phosphate buffer, 1.0 mM EDTA, adjusted to a pH 7.4 via titrating 700 mL buffer B with buffer A. Reference compound (ketanserin) and test compounds spiking solutions (500 μM) were prepared by adding 10 μL of 10 mM DMSO stock compound solution into 190 μL acetonitrile. A volume of 1.5 μL 500 μM spiking solution and 18.75 μL 20 mg/mL human liver microsomes were added into 479.75 μL of Buffer C on ice. A stock solution of 6 mM NADPH was prepared by dissolving NADPH into Buffer C.
Wells on an assay plate were iced and filled with 30 μL 1.5-μM spiking solution containing 0.75 mg/mL microsomes solution and designated for different timepoints (0-, 5-, 15-, 30-, 45-min). For the 0-min timepoint, 135 μL acetonitrile containing internal standard were added followed by 15 μL of NADPH stock solution (6 mM). All other plates were preincubated at 37° C. for 5 minutes and 15 μL NADPH stock solution (6 mM) were added to the plates to start the reaction. At 5-min, 15-min, 30-min, and 45-min, 135 μL acetonitrile containing internal standard were added to the wells of corresponding plates, respectively, to stop the reaction. After quenching, the plates were shaken on the vibrator (IKA, MTS 2/4) for 10 min at 600 rpm and then centrifuged at 5594×g for 15 minutes (Thermo Multifuge×3R). Fifty μL supernatant from each well were transported into a 96-well sample plate containing 50 μL of ultra-pure water (Millipore, ZMQS50F01) for LC/MS analysis.

[5] = Stability in human plasma; type: in vitro ADME; conditions: read-out: Plasma Stability T1/2
Method: Stability in Human Plasma.
Stock compounds were prepared for testing the stability in human plasma. First, 0.05 M sodium phosphate and 0.07 M NaCl buffer, pH 7.4, were pre-heated. In deionized water, 14.505 g/L Na2HPO 12H2O, 1.483 g/L NaH2PO4.2H2O and 4.095 g/L NaCl were dissolved. The basic solution was titrated with the phosphoric acid to pH 7.40. Frozen plasma was quickly thawed at 37° C. The plasma was centrifuged at 3,000 rpm for 8 minutes to remove clots, then pipetted and pooled as the plasma stock for the experiment. Only plasma within the range of pH 7.4 to pH 8 was used. If higher than pH 8, the plasma was discarded. The initial pH of the plasma was not adjusted to pH 7.4 with acid or by bubbling with carbon dioxide. By using a 5% carbon dioxide incubator and PBS buffer, a pH of 7.4 will be reached after the 4-hour equilibrium dialysis time. Plasma was iced until use.
Spiking solution A with 0.5 mM testing compounds was prepared by adding 10 μL of 10 mM test compounds stock solution to 190 μL DMSO. Spiking solution B with 0.02 mM testing compound was prepared by adding 40 μL of spiking solution A to 960 μL of […] sodium phosphate buffer with 0.5% BSA. The plasma and spiking solution B were prewarmed at 37° C. for 5 minutes. Ten μL of pre-warmed spiking solution B was added into the wells designated for all the time points (5, 15, 30, 45, 60 minutes). For the 0-minute timepoint, 400 μL acetonitrile containing internal standard were added to the wells of 0-minute plate and then 90 μL plasma were added. For the other timepoints, 90 μL of pre-warmed plasma were added into the wells (0, 5, 15, 30, 45, 60 minutes) and the timing was started. At 5, 15, 30, 45, 60 minutes, 400 μL acetonitrile containing internal standard were added to the wells of corresponding plates, respectively, to stop the reaction. After quenching, the plates were shaken on a vibrator (IKA, MTS 2/4) for 10 minutes at 600 rpm and then centrifuged at 5594×g for 15 minutes (Thermo Multifuge×3R). Fifty μL of supernatant was transferred from each well into a 96-well sample plate containing 50 μL ultra-pure water (Millipore, ZMQS50F01) for LC/MS analysis.

[6] = Protein binding (plasma equilibrium dialysis); type: in vitro ADME; conditions: 5 hours at 37° C.; for fraction unbound at 5 h, 1 μM: read-out: Protein Binding Fraction Bound (converted)
Method: For testing protein binding of stock compounds solubilized in DMSO, spiking solutions of test and reference compounds were prepared. Solution A (0.5 mM) was prepared by adding 10 μL of 10 mM stock solution into 190 μL of DMSO. Solution B (0.02 mM) was prepared by adding 8 μL of Solution A into 192 μL of 0.05 M sodium phosphate buffer. The final DMSO concentration in Solution B was 4%.
To prepare test and reference compounds in plasma, a 96-well plate with 380 μL aliquots of plasma in the wells designed for plasma and buffer, respectively. Twenty μL of Solution B (0.02 mM of test and reference compounds) were spiked into the pre-loaded plasma in the 96-well plate. The final test concentration is 1 μM containing 0.2% DMSO.
For dialysis sample loading a plasma again buffer system was prepared by applying aliquots of 100 μL of blank dialysis buffer to the receiver side of dialysis chambers and then applying aliquots of 100 μL of the plasma spiked with test and reference compounds to the donor side of the dialysis chamber. A 25-μL aliquot of the plasma spiked with test and reference compounds was added into a 96-well sample preparation plate as T″0″ plasma samples. Aliquots were mixed with the same volume of blank buffer (50:50, volume:volume). Samples were quenched with 200 μL of acetonitrile containing internal standard. The dialysis block was covered and a shaken at 60 rpm for 5 hours at 37° C.
After a 5-hour incubation, dialyzed samples were prepared from 25-μL aliquots from both the donor and receiver sides of the dialysis apparatus into new sample preparation plates. The aliquots were mixed with same volume of opposite matrixes. The samples were quenched with 200 μL acetonitrile containing internal standard. All 0-hour and 5-hour samples were vortexed at 600 rpm for 10 min followed by centrifugation at 5594×g for 15 minutes (Thermo Multifuge×3R). Fifty μL of the supernatants were transferred to anew 96-well plate and mixed with 50 μL Milli-Q water. The sample plate was covered and frozen at −20° C. until LC/MS/MS analysis.

recombinant full-length human hydroxyacid oxidase 1 (HAO1), the equivalent of hGOX, sequence (Q9UJM8 whole entry): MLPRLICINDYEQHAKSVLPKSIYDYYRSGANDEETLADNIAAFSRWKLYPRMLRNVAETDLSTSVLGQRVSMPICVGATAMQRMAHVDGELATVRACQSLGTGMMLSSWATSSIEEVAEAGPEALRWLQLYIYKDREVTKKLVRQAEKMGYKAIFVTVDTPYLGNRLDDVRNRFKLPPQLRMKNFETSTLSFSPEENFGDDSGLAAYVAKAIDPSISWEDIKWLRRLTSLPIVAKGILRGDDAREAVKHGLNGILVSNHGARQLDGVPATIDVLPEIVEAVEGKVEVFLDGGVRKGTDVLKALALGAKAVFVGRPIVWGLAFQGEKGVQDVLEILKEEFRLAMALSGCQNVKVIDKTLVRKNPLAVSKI

O=C(O)c1nn[nH]c1Oc1ccc(C2CC2)cc1 [Example I-294, 5-(4-Cyclopropylphenoxy)-1H-1,2,3-triazole-4-carboxylic acid]
IC50 [1]: 0.053 µM | solubility at 1 h [2]: 108 µM (≈ 26.4 µg/mL) | solubility at 1 h [3]: 108 µM (≈ 26.4 µg/mL) | CLint scaled at 1 μM [4]: 3.4 mL/min/kg | half-life at 1 μM [4]: 8.52 h | half-life at 2 μM [5]: 1.71 h | recovery at 5 h, 1 μM [6]: 111%

C#Cc1cccc(Oc2[nH]nnc2C(=O)O)c1 [Example I-288, 5-(3-ethynylphenoxy)-1H-1,2,3-triazole-4-carboxylic acid]
IC50 [1]: 0.024 µM | solubility at 1 h [2]: 92.4 µM (≈ 21.2 µg/mL) | solubility at 1 h [3]: 80.6 µM (≈ 18.5 µg/mL) | CLint scaled at 1 μM [4]: 3.11 mL/min/kg | half-life at 1 μM [4]: 9.31 h | half-life at 2 μM [5]: 1.96 h | recovery at 5 h, 1 μM [6]: 110% | fraction unbound at 5 h, 1 μM [6]: 0.025

O=C(O)c1nn[nH]c1Oc1ccc(C2CCCC2)cc1 [Example I-265, 5-(4-Cyclopentylphenoxy)-1H-1,2,3-triazole-4-carboxylic acid]
IC50 [1]: 0.025 µM | solubility at 1 h [2]: 107 µM (≈ 29.2 µg/mL) | solubility at 1 h [3]: 100 µM (≈ 27.4 µg/mL) | CLint scaled at 1 μM [4]: 18.6 mL/min/kg | half-life at 1 μM [4]: 1.55 h | half-life at 2 μM [5]: 1.44 h | recovery at 5 h, 1 μM [6]: 110%

Cc1ccc(-c2ccc(Sc3[nH]nnc3C(=O)O)cc2)cc1 [Example I-129, 5-((4′-Methyl-[1,1′-biphenyl]-4-yl)thio)-1H-1,2,3-triazole-4-carboxylic acid]
IC50 [1]: 0.041 µM | solubility at 1 h [2]: 116 µM (≈ 36.1 µg/mL) | solubility at 1 h [3]: 72.7 µM (≈ 22.6 µg/mL) | CLint scaled at 1 μM [4]: 21.6 mL/min/kg | half-life at 1 μM [4]: 1.34 h | half-life at 2 μM [5]: 1.44 h | recovery at 5 h, 1 μM [6]: 113%

CS(=O)(=O)c1ccc(-c2ccc(Oc3[nH]nnc3C(=O)O)cc2)cc1 [Example I-167, 5-((4′-(methylsulfonyl)-[1,1′-biphenyl]-4-yl)oxy)-1H-1,2,3-triazole-4-carboxylic acid]
IC50 [1]: 0.008 µM | solubility at 1 h [2]: 116 µM (≈ 41.9 µg/mL) | solubility at 1 h [3]: 112 µM (≈ 40.4 µg/mL) | CLint scaled at 1 μM [4]: 1.7 mL/min/kg | half-life at 1 μM [4]: 17 h | half-life at 2 μM [5]: 6.19 h | recovery at 5 h, 1 μM [6]: 95.5%

O=C(O)c1nn[nH]c1Oc1ccc(S(F)(F)(F)(F)F)cc1 [Example I-049, 5-(4-Pentafluorosulfanylphenoxy)-1H-1,2,3-triazole-4-carboxylic acid]
IC50 [1]: 0.05 µM | half-life at 2 μM [5]: 3.65 h | recovery at 5 h, 1 μM [6]: 107% | fraction unbound at 5 h, 1 μM [6]: 0.006

CCCC(C)c1cccc(Oc2[nH]nnc2C(=O)O)c1 (stereo not drawn) [Example I-277]
IC50 [1]: 0.065 µM | solubility at 1 h [2]: 113 µM (≈ 31.1 µg/mL) | solubility at 1 h [3]: 97.2 µM (≈ 26.8 µg/mL) | CLint scaled at 1 μM [4]: 8.56 mL/min/kg | half-life at 1 μM [4]: 3.38 h | half-life at 2 μM [5]: 2.71 h | recovery at 5 h, 1 μM [6]: 108% | fraction unbound at 5 h, 1 μM [6]: 0.003

O=C(O)c1nn[nH]c1Oc1cccc(C2CCC2)c1 [Example I-279, 5-(3-Cyclobutylphenoxy)-1H-1,2,3-triazole-4-carboxylic acid]
IC50 [1]: 0.032 µM | solubility at 1 h [2]: 112 µM (≈ 29.1 µg/mL) | solubility at 1 h [3]: 111 µM (≈ 28.7 µg/mL) | CLint scaled at 1 μM [4]: 4.98 mL/min/kg | half-life at 1 μM [4]: 5.82 h | half-life at 2 μM [5]: 2.61 h | recovery at 5 h, 1 μM [6]: 98.2%

O=C(O)c1nn[nH]c1Oc1ccc(-c2ccc3c(c2)OCO3)cc1 [Example I-304, 5-(4-(Benzo[d][1,3]dioxol-5-yl)phenoxy)-1H-1,2,3-triazole-4-carboxylic acid]
IC50 [1]: 0.004 µM | solubility at 1 h [2]: 111 µM (≈ 36.2 µg/mL) | solubility at 1 h [3]: 115 µM (≈ 37.4 µg/mL) | CLint scaled at 1 μM [4]: 5.47 mL/min/kg | half-life at 1 μM [4]: 5.3 h | half-life at 2 μM [5]: 6.68 h | recovery at 5 h, 1 μM [6]: 105% | fraction unbound at 5 h, 1 μM [6]: 0.007

Cc1ccc(-c2ccc(Oc3[nH]nnc3C(=O)O)cc2)cc1 [Example I-151, 5-((4′-Methyl-[1,1′-biphenyl]-4-yl)oxy)-1H-1,2,3-triazole-4-carboxylic acid]
IC50 [1]: 0.011 µM | solubility at 1 h [2]: 83.2 µM (≈ 24.6 µg/mL) | solubility at 1 h [3]: 53 µM (≈ 15.6 µg/mL) | CLint scaled at 1 μM [4]: < 0.15 mL/min/kg | half-life at 1 μM [4]: > 83.3 h | half-life at 2 μM [5]: 0.669 h

COc1ccc(-c2ccc(Oc3[nH]nnc3C(=O)O)cc2)cc1OC [Example I-270, 5-((3′,4′-Dimethoxy-[1,1′-biphenyl]-4-yl)oxy)-1H-1,2,3-triazole-4-carboxylic acid]
IC50 [1]: 0.013 µM | solubility at 1 h [2]: < 0.2 µM | solubility at 1 h [3]: 109 µM (≈ 37.2 µg/mL) | CLint scaled at 1 μM [4]: 2.72 mL/min/kg | half-life at 1 μM [4]: 10.6 h | half-life at 2 μM [5]: 5.2 h | recovery at 5 h, 1 μM [6]: 101% | fraction unbound at 5 h, 1 μM [6]: 0.008

COc1ccc(-c2ccc(Oc3[nH]nnc3C(=O)O)cc2)cc1 [Example I-153, 5-((4′-Methoxy-[1,1′-biphenyl]-4-yl)oxy)-1H-1,2,3-triazole-4-carboxylic acid]
IC50 [1]: 0.01 µM | half-life at 2 μM [5]: 3.11 h | recovery at 5 h, 1 μM [6]: 116% | fraction unbound at 5 h, 1 μM [6]: 0.103
